Literature values in patent US20120093928A1, “ORAL METAXALONE COMPOSITIONS” (RANBAXY LABORATORIES LIMITED, priority 2007, published 2012).

plasma half-life (in vivo): 2 to 3 h
time to mean peak plasma concentrations (oral, single 800 mg dosage): 2 h
Structure (SMILES): Cc1cc(C)cc(OCC2CNC(=O)O2)c1 (centres unmarked) [metaxalone, 5-[(3,5-dimethyphenoxy)methyl]-2-oxazolidinone]
